In patent US20240156800A1, “EP300 DEGRADER AND USES THEREOF IN NEUROBLASTOMA” (DANA-FARBER CANCER INSTITUTE, INC., priority 2021, published 2024):

Experiments:
EP300 = target: T1, EP300 (Homo sapiens, UniProt Q09472); assay: Western blotting of EP300 in treated NB cells; assay type: cell-based
T1 construct: Cells growing in culture were lysed for whole cell lysates; endogenous in cells; host or cells: Kelly, NGP, SIMA, BE2C neuroblastoma cells; Kelly xenografts in NSG mice
Procedure: (§1) Cells growing in culture were lysed for whole cell lysates as described in Durbin et al. Nat. Genet. 50:1240-1246 (2018) and Wang et al. Nat. Commun. 10:5622 (2019). Nuclear lysates were prepared using the NE-PER® nuclear lysate kit (Thermo Scientific™) according to the manufacturer's protocol. Chromatin lysates were prepared with the total histone extraction kit (Epigentek). Briefly, equivalent amounts of protein were resolved by western blotting using 4-12% Bis-Tris NuPAGE™ gels (Thermo-Fisher Scientific) prior to transfer, and immunoblotting using primary antibodies to: MYCN (1:1000, Cell Signaling Technology®), H3K27ac (1:1000, Abcam), total H3 (1:1000, Cell Signaling Technology®), EP300 (1:1000, Abcam), CBP (1:500, Cell Signaling Technology®), Cas9 (1:1000, Cell Signaling Technology®), cleaved-PARP1 (1:1000, Cell Signaling Technology), cleaved Caspase-3 (1:1000, Cell Signaling Technology®), β-actin (1:1000, Cell Signaling Technology®), GATA3 (1:1000, EMD Millipore™), TFAP2β (1:1000, Cell Signaling Technology®), Vinculin (1:1000, EMD Millipore™), CRBN (1:1000, Cell Signaling Technology®), HAND2 (1:1000, Santa Cruz Biotechnology). Secondary antibodies were horseradish peroxidase (HRP)-conjugated anti-rabbit or anti-mouse (1:5000, Santa Cruz Biotechnology), incubated prior to exposure to enhanced chemiluminescence reagents (GE, Amersham). For immunoprecipitation, equal amounts of protein were diluted in buffer C as described in Mansour et al. Science 346:1373-1377 (2014) and incubated with antibodies covalently conjugated to Dynabeads™ M-270 beads (Thermo-Fisher Scientific) overnight according to the manufacturer's directions. Antibodies used included: H3K27ac, EP300 (Abcam), CBP, TFAP2β (Cell Signaling Technology®), rabbit immunoglobulin G (IgG) (Santa Cruz Biotechnology®). Immunoprecipitated protein was isolated as per the manufacturer's directions and subjected to western blotting, as described above, or mass spectrometry.

H3K27ac = assay: Western blotting of H3K27ac in treated NB cells; assay type: cell-based, human; settings: Kelly cells, 24 h
Procedure: as §1

CBP = target: T2, CBP (Homo sapiens, UniProt Q92793); assay: SILAC mass spectrometry of the nuclear proteome of Kelly cells (CBP); assay type: cell-based; settings: 500 nM, 24 h, nuclear extract
T2 construct: Cells growing in culture were lysed for whole cell lysates; endogenous in cells; host or cells: Kelly, NGP, SIMA, BE2C neuroblastoma cells; Kelly xenografts in NSG mice
T2 sequence (Q92793 whole entry): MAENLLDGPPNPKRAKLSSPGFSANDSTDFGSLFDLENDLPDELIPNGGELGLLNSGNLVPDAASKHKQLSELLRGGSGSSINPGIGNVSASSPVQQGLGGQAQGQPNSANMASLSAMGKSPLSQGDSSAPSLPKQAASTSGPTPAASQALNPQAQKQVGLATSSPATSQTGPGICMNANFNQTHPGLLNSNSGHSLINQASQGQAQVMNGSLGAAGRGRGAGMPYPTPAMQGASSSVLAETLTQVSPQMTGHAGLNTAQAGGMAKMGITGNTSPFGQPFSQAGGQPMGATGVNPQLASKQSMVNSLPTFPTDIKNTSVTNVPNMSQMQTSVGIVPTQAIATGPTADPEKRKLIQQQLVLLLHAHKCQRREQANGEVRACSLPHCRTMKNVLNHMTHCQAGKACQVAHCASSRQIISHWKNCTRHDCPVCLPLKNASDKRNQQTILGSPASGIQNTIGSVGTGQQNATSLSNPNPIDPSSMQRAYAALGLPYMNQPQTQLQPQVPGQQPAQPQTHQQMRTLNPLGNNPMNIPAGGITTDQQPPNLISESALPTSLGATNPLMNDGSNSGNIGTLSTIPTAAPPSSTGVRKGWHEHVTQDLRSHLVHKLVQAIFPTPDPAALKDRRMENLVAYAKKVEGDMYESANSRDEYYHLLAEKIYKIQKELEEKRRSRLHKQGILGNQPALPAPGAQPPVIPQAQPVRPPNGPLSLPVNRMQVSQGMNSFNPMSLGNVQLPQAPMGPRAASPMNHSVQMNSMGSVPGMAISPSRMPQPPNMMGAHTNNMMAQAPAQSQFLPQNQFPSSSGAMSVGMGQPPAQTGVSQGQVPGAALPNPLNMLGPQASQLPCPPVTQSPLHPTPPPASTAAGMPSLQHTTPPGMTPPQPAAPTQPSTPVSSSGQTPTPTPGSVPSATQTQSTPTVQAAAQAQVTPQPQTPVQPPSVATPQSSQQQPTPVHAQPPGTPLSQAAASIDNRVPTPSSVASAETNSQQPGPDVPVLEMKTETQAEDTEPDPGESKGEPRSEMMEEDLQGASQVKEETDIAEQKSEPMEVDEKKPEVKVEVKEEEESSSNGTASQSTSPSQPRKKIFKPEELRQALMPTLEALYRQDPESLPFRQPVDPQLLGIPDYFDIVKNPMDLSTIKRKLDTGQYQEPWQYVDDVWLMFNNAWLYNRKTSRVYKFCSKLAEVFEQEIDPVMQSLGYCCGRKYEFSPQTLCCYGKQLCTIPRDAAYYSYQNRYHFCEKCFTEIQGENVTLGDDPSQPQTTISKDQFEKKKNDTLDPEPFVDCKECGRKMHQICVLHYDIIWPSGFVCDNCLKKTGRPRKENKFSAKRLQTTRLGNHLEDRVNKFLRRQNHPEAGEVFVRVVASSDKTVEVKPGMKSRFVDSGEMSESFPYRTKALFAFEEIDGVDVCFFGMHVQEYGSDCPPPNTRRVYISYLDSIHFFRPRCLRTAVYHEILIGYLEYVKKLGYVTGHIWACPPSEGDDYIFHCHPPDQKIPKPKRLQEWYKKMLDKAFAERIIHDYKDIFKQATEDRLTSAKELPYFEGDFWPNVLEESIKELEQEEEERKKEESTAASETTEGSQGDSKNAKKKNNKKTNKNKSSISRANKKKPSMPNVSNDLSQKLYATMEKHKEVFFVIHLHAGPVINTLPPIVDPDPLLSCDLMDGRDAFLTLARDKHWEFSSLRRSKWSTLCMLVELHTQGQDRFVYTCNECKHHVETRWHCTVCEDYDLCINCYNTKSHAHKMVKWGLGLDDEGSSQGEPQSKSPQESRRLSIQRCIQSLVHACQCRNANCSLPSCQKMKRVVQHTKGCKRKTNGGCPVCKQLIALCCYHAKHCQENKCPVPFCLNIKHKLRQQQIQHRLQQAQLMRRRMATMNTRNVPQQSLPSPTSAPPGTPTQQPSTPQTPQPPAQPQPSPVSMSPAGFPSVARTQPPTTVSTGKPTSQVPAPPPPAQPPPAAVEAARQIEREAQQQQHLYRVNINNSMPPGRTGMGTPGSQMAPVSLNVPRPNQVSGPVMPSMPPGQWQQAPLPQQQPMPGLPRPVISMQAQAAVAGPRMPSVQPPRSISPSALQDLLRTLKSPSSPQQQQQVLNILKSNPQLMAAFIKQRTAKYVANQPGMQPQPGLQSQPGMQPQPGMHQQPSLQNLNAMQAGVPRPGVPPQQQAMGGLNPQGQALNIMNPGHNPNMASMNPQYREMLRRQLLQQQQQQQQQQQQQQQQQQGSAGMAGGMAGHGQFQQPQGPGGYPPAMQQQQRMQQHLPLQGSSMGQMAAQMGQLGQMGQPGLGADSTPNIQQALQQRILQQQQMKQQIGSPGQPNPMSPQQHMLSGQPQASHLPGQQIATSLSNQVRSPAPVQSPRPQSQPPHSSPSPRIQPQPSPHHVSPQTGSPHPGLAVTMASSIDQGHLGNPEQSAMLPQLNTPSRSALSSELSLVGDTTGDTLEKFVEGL
Procedure: Because JQAD1 interacted preferentially with both EP300 and CRBN, whether JQAD1 preferentially induces degradation of EP300 compared to CBP in MYCN-amplified neuroblastoma cells was examined. […] To further examine the specificity of JQAD1 for EP300, an analysis of the effects of JQAD1 in stable isotope labeling by amino acids in cell culture (SILAC)-labelled Kelly cells was performed (FIG. 3F). Kelly cells were cultured with SILAC media containing heavy or light-labelled arginine and lysine. Heavy labelled cells were treated with 500 nM JQAD1, and light-labelled cells treated with dimethyl sulfoxide (DMSO) for 24 h, prior to nuclear extraction and protein lysis. […] Protein abundance was then analyzed by mass spectrometry, to determine global changes in the nuclear proteome. […] To expand upon these findings, three NB cell lines, Kelly, NGP and SIMA, which have high levels of CRBN (e.g., protein or mRNA) (FIG. 8C), were treated with JQAD, and the effects on specific proteins were measured by western blotting. […] Peptides were detected, isolated, and fragmented to produce a tandem mass spectrum of specific fragment ions for each peptide. Peptide sequences and protein identity were determined by matching protein databases with the acquired fragmentation pattern by Sequest® (Thermo Fisher Scientific) (Eng et al. J. Am. Soc. Mass Spectrom. 5:976-89 (1994)). […]

MYCN = assay: Western blotting of MYCN (whole lysates and chromatin extracts); assay type: cell-based, human; settings: Kelly cells, 0.5 and 1 μM, 24 h, chromatin extracts
Procedure: as §1

T1 sequence (Q09472 whole entry): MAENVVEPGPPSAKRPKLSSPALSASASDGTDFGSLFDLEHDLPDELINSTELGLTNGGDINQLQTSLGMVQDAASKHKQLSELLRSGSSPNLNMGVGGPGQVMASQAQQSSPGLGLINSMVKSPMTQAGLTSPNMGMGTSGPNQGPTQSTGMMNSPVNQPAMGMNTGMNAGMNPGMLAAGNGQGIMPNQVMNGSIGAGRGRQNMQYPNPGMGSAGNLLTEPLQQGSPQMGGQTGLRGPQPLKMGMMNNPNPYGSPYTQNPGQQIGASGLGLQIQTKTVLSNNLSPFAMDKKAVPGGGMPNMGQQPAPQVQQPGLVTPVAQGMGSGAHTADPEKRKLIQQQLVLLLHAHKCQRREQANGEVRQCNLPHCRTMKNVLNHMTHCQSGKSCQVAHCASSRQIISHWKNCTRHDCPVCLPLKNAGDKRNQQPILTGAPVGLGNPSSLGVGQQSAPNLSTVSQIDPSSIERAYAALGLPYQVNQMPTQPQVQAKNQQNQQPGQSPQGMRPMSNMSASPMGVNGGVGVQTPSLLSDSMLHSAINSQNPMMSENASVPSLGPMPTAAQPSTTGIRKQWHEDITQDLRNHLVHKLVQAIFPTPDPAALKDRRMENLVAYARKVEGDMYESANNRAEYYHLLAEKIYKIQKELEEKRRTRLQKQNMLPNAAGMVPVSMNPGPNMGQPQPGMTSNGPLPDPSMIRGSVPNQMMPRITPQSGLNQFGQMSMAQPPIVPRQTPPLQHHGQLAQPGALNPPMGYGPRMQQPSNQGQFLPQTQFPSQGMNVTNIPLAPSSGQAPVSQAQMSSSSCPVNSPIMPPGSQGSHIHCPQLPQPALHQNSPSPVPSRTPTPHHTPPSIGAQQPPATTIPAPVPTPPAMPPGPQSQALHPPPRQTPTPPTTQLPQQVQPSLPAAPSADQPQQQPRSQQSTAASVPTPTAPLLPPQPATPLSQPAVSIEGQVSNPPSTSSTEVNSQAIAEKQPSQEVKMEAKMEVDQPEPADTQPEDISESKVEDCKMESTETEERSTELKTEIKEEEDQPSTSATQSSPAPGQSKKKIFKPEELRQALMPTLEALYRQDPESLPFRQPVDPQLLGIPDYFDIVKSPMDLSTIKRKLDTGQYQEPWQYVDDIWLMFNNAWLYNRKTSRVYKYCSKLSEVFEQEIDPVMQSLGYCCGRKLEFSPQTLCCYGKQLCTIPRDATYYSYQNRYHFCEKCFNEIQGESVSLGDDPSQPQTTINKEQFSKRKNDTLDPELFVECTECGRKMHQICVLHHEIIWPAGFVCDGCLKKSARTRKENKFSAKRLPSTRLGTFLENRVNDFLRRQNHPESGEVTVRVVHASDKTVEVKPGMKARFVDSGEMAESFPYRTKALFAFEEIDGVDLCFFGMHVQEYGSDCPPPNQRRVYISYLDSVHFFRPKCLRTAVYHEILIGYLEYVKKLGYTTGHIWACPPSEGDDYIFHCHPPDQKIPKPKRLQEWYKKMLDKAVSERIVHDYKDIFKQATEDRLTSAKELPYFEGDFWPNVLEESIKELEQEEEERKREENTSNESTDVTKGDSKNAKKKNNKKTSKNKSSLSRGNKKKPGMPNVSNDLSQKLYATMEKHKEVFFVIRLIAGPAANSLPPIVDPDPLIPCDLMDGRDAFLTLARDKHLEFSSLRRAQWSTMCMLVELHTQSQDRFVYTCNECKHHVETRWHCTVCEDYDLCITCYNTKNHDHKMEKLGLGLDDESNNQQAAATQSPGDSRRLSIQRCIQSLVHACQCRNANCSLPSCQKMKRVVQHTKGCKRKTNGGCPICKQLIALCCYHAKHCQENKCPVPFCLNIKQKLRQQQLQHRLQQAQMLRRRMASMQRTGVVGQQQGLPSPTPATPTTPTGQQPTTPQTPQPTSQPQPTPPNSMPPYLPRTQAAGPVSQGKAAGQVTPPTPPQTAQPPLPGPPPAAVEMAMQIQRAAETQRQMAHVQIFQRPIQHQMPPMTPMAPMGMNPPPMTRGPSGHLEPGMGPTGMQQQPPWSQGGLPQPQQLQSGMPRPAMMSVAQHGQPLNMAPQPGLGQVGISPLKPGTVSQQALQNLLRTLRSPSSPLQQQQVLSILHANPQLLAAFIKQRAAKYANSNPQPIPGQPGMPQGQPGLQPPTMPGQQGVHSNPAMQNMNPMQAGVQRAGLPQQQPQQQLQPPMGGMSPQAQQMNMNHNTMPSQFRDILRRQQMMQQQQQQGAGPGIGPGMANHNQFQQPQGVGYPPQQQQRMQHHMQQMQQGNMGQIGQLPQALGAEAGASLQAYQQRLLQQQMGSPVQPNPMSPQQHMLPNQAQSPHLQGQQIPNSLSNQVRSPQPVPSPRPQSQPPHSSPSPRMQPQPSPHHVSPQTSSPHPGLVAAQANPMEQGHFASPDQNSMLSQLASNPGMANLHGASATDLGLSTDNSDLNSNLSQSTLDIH

In the case of `C[C@H](N(Cc1ccc(F)cc1)C(=O)CN1C(=O)O[C@@]2(CCc3cc(NC(=O)CCCCCCCCCCCNc4ccc5c(c4)C(=O)N(C4CCC(=O)NC4=O)C5=O)ccc32)C1=O)C(F)(F)F` (stereo partly drawn) [JQAD1, 12-((2-(2,6-dioxopiperidin-3-yl)-1,3-dioxoisoindolin-5-yl)amino)-N-((R)-3′-(2-((4-fluorobenzyl)((S)-1,1,1-trifluoropropan-2-yl)amino)-2-oxoethyl)-2′,4′-dioxo-2,3-dihydrospiro[indene-1,5′-oxazolidin]-5-yl)dodecanamide], the “EP300 expression in BE2C-CRBN cells” value (EP300; BE2C cells overexpressing CRBN, 10 μM) is reported as “degraded within 24 h”, the “EP300 expression in control BE2C-zsGreen cells” value (EP300; BE2C-zsGreen cells, 10 μM) is reported as “unaffected” and the “degradation of EP300 on co-treatment with excess A485, pomalidomide, bortezomib or MLN4924” value (EP300; Kelly cells, 4 h pre-treatment, then JQAD1 500 nM 48 h) is reported as “blocked”. The EP300 expression (EP300; Kelly cells, 24 h) was “dose-dependent decrease in EP300 expression”, the EP300 expression (EP300; Kelly cells, 24 h, listed as (R,S)-JQAD1) was “suppressed both H3K27ac and EP300 expression levels” and the “EP300 expression (time course)” value (EP300; Kelly, NGP and SIMA cells) was “selective loss of EP300 expression by 24 h”. The “EP300, H3K27ac and PARP1 cleavage in control versus CRBN-edited cells” value (EP300; Kelly-Cas9 cells, 500 nM, 24 h) was “suppressed EP300 expression and the H3K27ac modification, and induced apoptosis marked by PARP1 cleavage in control knockout cells, but not in CRBN-edited cells”, the H3K27ac modification (H3K27ac) was “parallel loss of the H3K27ac modification” and the H3K27ac modification (H3K27ac; listed as (R,S)-JQAD1) was “suppressed both H3K27ac and EP300 expression levels”. The CBP protein abundance (CBP) was “remained detectable at similar levels as controls” and the “chromatin-bound MYCN” value (MYCN) was “loss of both EP300 and chromatin-bound MYCN proteins”.
